These results are taken from PMC3791449, “Mechanism of amyloid β−protein dimerization determined using single−molecule AFM force spectroscopy” (Scientific Reports, 2013).

Assay [1] concerns misfolded Aβ dimers. Nature of the assay: Dynamic force spectroscopy (DFS) of misfolded Aβ dimers. In kind it is binding, human. Conditions: for koff (dissociation rate without applied force) / xβ (potential barrier location): Bell-Evans fit; for koff (dissociation rate without applied force): extrapolated to zero force; for barrier height (ΔG) of dimer dissociation: from mean koff of independent experiments, equation (4); for dimer lifetime (1/koff): zero applied force. The procedure:
The cysteinyl−peptides were covalently immobilized on the tip and the surface via flexible tethers terminated with maleimide groups. […] Peptide aggregation was minimized by using a very low peptide concentration (20 nM) during the coupling reaction with the functionalized mica surface and the tips. Probing was performed by multiple approach−retraction cycles over various spots of the mica surface.
In the DFS approach, multiple force measurements were performed at different pulling rates and the data were grouped into several clusters according to the selected loading rates. […] After extrapolating the data to the zero pulling rate, the intercept and the slope of the linear plots (DFS spectrum) produced characteristics of the complexes, including their stability (off−rate constant koff) and the energy barrier position (xβ)[20][21].
The mean values were calculated from this dataset (Supplementary Table S1) and equation (4) (see Methods) was used to extract the barrier height (ΔG), along with xβ values, to generate the energy profile for the Aβ40 dissociation process.
All cysteinyl−Aβ peptides were synthesized using 9−fluorenylmethoxycarbonyl (FMOC) chemistry and purified by reverse phase high performance liquid chromatography (RP−HPLC). […] Functionalization of AFM tips and mica substrates were prepared according to previously published procedures. Briefly, 20 nM Aβ monomers were immobilized on mica functionalized with aminopropyl silatrane (APS) via PEG 3400 tethers and on AFM tips through maleimide silatrane (MAS). For DFS study, the tip retraction speeds ranged from 100 nm/s to 4000 nm/s. The dwell time was set at 0.3 s when retraction speed reached 1000 nm/s and above. Force curves with rupture event were subject to WLC analysis, as shown below. [drawing 1] Rupture force distributions were fitted with a probability density function: [drawing 2] Dynamic force spectra were fitted with Bell−Evans model[21]: [drawing 3] The energy profiles were reconstructed according to previous papers, using the equation below. [drawing 4] Positions of interacting segments of Aβ monomers within dimers were estimated by subtracting from the measured contour lengths the lengths of all linkers and the distance between N−termini of monomers (see Fig. 1a). The contour length of PEG was estimated with the following equation[28]: [drawing 5] Where Lc(F) is the contour length, Ns is the average number of monomers, Lplanar is the length of monomers with planar conformation, Lhelical is the length of monomers with helical conformation, ΔG(F) is the free energy difference at zero appling force. The Ns is 77 ± 10 for 3400 Da PEG. The Lplanar and Lhelical are 3.58 Å and 2.8 Å, respectively. The ΔG(F) is fixed at 3 kBT. […] All error bars represent SEM. Detailed methods can be found in Supplementary Information.
A 50 mM 1−(3−aminopropyl) silatrane (APS) stock solution was prepared by dissolving the APS powder in deionized (DI) water. The 1.67 mM stock solution of maleimide−polyethylene glycol−succinimidyl valerate (MAL−PEG−SVA; 3.4 kDa Laysan Bio Inc, Arab, AL) was prepared in DMSO (Sigma−Aldrich Inc.) and stored at −20°C. The 10 mM Tris (2−carboxyethyl) phosphine (TCEP) hydrochloride (Hampton Research Inc.) and the 2.94 mM solution of maleimide silatrane (MAS) were prepared in DI water and stored at −20°C. A 10 mM stock solution of β−mercaptoethanol was prepared in 10 mM sodium phosphate, pH 7.4 (“phosphate buffer”) and kept at 4°C. Unless otherwise specified, other reagents used in the experiments were of analytical grade from Sigma−Aldrich.

The subject of assay [2] is misfolded Aβ dimers. In words: Contour length analysis of interacting segments within Aβ dimers. Conditions: contour length profiles, Fig. 5. In kind it is binding, human. An excerpt:
We used the contour length measurements to identify segments of the peptides involved in dimer formation. The measured contour length is comprised of the length of the flexible tethers used for peptide immobilization and the length of the segment of the peptide from the anchoring point to the rupture position. The latter, according to the schematic in Fig. 1, was obtained by subtracting the lengths of all linkers from the measured contour lengths.
Probing interactions of Aβ peptides within a dimer by SMFS provides a pattern of peptide interactions within the dimers. According to the immobilization procedure, the peptide is covalently bound at its N−terminal cysteine. The experimentally measured contour length consists of two major components, the lengths of the flexible tethers used for peptide immobilization and the length of the peptide segment between the N−terminus and the segment of the peptide involved in interpeptide interactions. Therefore, the position of the peak on the force−distance curve is defined by the peptide length between the N−terminus and the interacting segment. […] The closer the interacting segment is to the N−terminus, the shorter the contour length will be when measured by AFM. […] The contour length of PEG 3400 was estimated to be 22.0 ± 0.9 nm[28]. Lengths of both aminopropyl silatrane (APS) and MAS were ~ 2.5 nm[13]. Therefore, the total length of all linkers was 24.5 ± 0.9 nm. In addition, the distance between N−termini of two peptides was estimated to be 1.0 nm.
All cysteinyl−Aβ peptides were synthesized using 9−fluorenylmethoxycarbonyl (FMOC) chemistry and purified by reverse phase high performance liquid chromatography (RP−HPLC). The identity and purity (usually > 97%) of the peptides were confirmed by amino acid analysis followed by mass spectrometry and RP−HPLC. Functionalization of AFM tips and mica substrates were prepared according to previously published procedures. Briefly, 20 nM Aβ monomers were immobilized on mica functionalized with aminopropyl silatrane (APS) via PEG 3400 tethers and on AFM tips through maleimide silatrane (MAS). For DFS study, the tip retraction speeds ranged from 100 nm/s to 4000 nm/s. The dwell time was set at 0.3 s when retraction speed reached 1000 nm/s and above. Force curves with rupture event were subject to WLC analysis, as shown below. [drawing 1] Rupture force distributions were fitted with a probability density function: [drawing 2] Dynamic force spectra were fitted with Bell−Evans model[21]: [drawing 3] […] Positions of interacting segments of Aβ monomers within dimers were estimated by subtracting from the measured contour lengths the lengths of all linkers and the distance between N−termini of monomers (see Fig. 1a). […]

The mark [3] stands for this setting: experiment #1, retraction 100-4000 nm/s.
The mark [4] stands for this setting: experiment #1, retraction 100-4000 nm/s, approach 400 nm/s, trigger force 100 pN, dwell 0.3 s at ≥1000 nm/s, N-terminal Cys tethered, 20 nM coupling.
[5] abbreviates: experiment #2, retraction 100-4000 nm/s.
[6] abbreviates: experiment #3, retraction 100-4000 nm/s.
Where [7] appears, read: mean ± SEM of three experiments.
Setting [8] is: mean ± SEM of three experiments, retraction 100-4000 nm/s.
Setting [9] is: mean ± SEM of three experiments, DFS.

“Also recorded” adds a separate entry of the source.

Turning to “Aβ40: alloform of human amyloid β−protein; cysteinyl−Aβ peptide, Cys residue placed at the N−terminus”, the “koff (dissociation rate without applied force)” value with misfolded Aβ dimers [1] (setting [3]) is 9.4 s⁻¹; in the assay with misfolded Aβ dimers [1] (experiment #2) it was 4.7 s⁻¹; in the assay with misfolded Aβ dimers [1] (experiment #3), 12.9 s⁻¹; with misfolded Aβ dimers [1] (setting [7]), 9.0 ± 2.4 s⁻¹. Besides, the “xβ (potential barrier location)” value in the assay on misfolded Aβ dimers [1] (setting [4]) stood at 0.203 nm; in the assay with misfolded Aβ dimers [1] (setting [5]) it was 0.257 nm; in the assay with misfolded Aβ dimers [1] (setting [6]), 0.206 nm; in the assay on misfolded Aβ dimers [1] (setting [8]), 0.222 ± 0.018 nm. Moreover, the “barrier height (ΔG) of dimer dissociation” value (“barrier height (ΔG)” below) in the assay on misfolded Aβ dimers [1] came out at 27.3 kBT. For the same substance, the “dimer lifetime (1/koff)” value in the assay on misfolded Aβ dimers [1] (setting [9]) was 0.11 s. Also, the “predominant interpeptide interaction pattern in dimer” value with misfolded Aβ dimers [2] is “primary interactions that occur via the N−termini; also recorded: predominate contribution of N−terminal interactions”.

Regarding “Aβ42: alloform of human amyloid β−protein with two additional C−terminal residues; cysteinyl−peptide”, the “xβ (potential barrier location)” value is recorded as 0.299 nm in the assay with misfolded Aβ dimers [1] (setting [4]), 0.260 nm with misfolded Aβ dimers [1] (setting [5]), 0.262 nm in the assay with misfolded Aβ dimers [1] (setting [6]) and 0.274 ± 0.013 nm in the assay on misfolded Aβ dimers [1] (setting [8]). Also, in the assay with misfolded Aβ dimers [2], the “predominant interpeptide interaction pattern in dimer” value was “interactions within the C−terminus”.

On to “[VPV]Aβ40: Aβ40 mutant with VPV substitutions (Gly33Val−Val36Pro−Gly38Val); cysteinyl−peptide”, for which the “koff (dissociation rate without applied force)” value with misfolded Aβ dimers [1] (setting [3]) was 2.2 s⁻¹; in the assay with misfolded Aβ dimers [1] (experiment #2), 1.7 s⁻¹; with misfolded Aβ dimers [1] (experiment #3) it was 1.9 s⁻¹; with misfolded Aβ dimers [1] (setting [7]) it was 1.9 ± 0.1 s⁻¹. Further, the “xβ (potential barrier location)” value was 0.361 nm in the assay with misfolded Aβ dimers [1] (setting [4]), 0.293 nm with misfolded Aβ dimers [1] (setting [5]), 0.262 nm in the assay on misfolded Aβ dimers [1] (setting [6]) and 0.305 ± 0.029 nm with misfolded Aβ dimers [1] (setting [8]). Also, in the assay on misfolded Aβ dimers [1], the “barrier height (ΔG)” value is on record as 28.8 kBT. In addition, the “dimer lifetime (1/koff)” value in the assay on misfolded Aβ dimers [1] (setting [9]) came to 0.53 s. The “predominant interpeptide interaction pattern in dimer” value in the assay on misfolded Aβ dimers [2] was “increased interactions between the central and C−terminal segments”.

As for “[VPV]Aβ42: Aβ42 with VPV substitutions (Gly33Val−Val36Pro−Gly38Val); cysteinyl−peptide”, the “lifetime increase of dimer vs WT counterpart” value with misfolded Aβ dimers [1] (DFS, [VPV] mutant vs wild type) was “more than three times higher”. Further, the “koff (dissociation rate without applied force)” value in the assay with misfolded Aβ dimers [1] (setting [3]) was 1.1 s⁻¹; in the assay on misfolded Aβ dimers [1] (experiment #2) it was 2.1 s⁻¹; in the assay on misfolded Aβ dimers [1] (experiment #3), 1.5 s⁻¹; with misfolded Aβ dimers [1] (setting [7]), 1.6 ± 0.3 s⁻¹. For the same substance, the “xβ (potential barrier location)” value in the assay with misfolded Aβ dimers [1] (setting [4]) worked out at 0.451 nm; in the assay with misfolded Aβ dimers [1] (setting [5]), 0.337 nm; in the assay on misfolded Aβ dimers [1] (setting [6]), 0.387 nm; in the assay with misfolded Aβ dimers [1] (setting [8]), 0.392 ± 0.034 nm. The “barrier height (ΔG)” value in the assay with misfolded Aβ dimers [1] was found to be 29.0 kBT. Moreover, the “dimer lifetime (1/koff)” value with misfolded Aβ dimers [1] (setting [9]) was determined as 0.63 ± 0.12 s. The “predominant interpeptide interaction pattern in dimer” value in the assay with misfolded Aβ dimers [2] is reported as “interactions within the central segments”.
